Data from PubChem BioAssay (NCI).
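Exposure lasted 48 hours, with cells grown in 96-well plates and compounds tested at five concentrations. The concentration for full growth arrest is given as TGI.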

What was measured:
Assay in all cases: NCI anticancer screen, dose series, 48 h
HS 578T breast = test system: HS 578T breast
SK-OV-3 ovarian = test system: SK-OV-3 ovarian
MDA-N = test system: MDA-N
RPMI-8226 leukemia = test system: RPMI-8226 leukemia
HCC-2998 colon = test system: HCC-2998 colon
SN12C renal = test system: SN12C renal
SK-MEL-2 melanoma = test system: SK-MEL-2 melanoma
U251 CNS = test system: U251 CNS
EKVX NSCLC = test system: EKVX NSCLC
SF-295 CNS = test system: SF-295 CNS
HOP-92 NSCLC = test system: HOP-92 NSCLC
NCI-H522 lung = test system: NCI-H522 lung
UO-31 renal = test system: UO-31 renal
HCT-15 colon = test system: HCT-15 colon
MDA-MB-231 breast = test system: MDA-MB-231 breast
M14 melanoma = test system: M14 melanoma
OVCAR-4 ovarian = test system: OVCAR-4 ovarian
KM12 colon = test system: KM12 colon
BT-549 breast = test system: BT-549 breast
ACHN renal = test system: ACHN renal
NCI/ADR-RES ovarian = test system: NCI/ADR-RES ovarian
K-562 leukemia = test system: K-562 leukemia
COLO 205 colon = test system: COLO 205 colon
PC-3 prostate = test system: PC-3 prostate
OVCAR-3 ovarian = test system: OVCAR-3 ovarian
UACC-62 melanoma = test system: UACC-62 melanoma
MCF7 breast = test system: MCF7 breast
SF-539 CNS = test system: SF-539 CNS
MALME-3M melanoma = test system: MALME-3M melanoma
SK-MEL-5 melanoma = test system: SK-MEL-5 melanoma
OVCAR-5 ovarian = test system: OVCAR-5 ovarian
786-0 renal = test system: 786-0 renal
OVCAR-8 ovarian = test system: OVCAR-8 ovarian
UACC-257 melanoma = test system: UACC-257 melanoma
MDA-MB-435 = test system: MDA-MB-435
SNB-19 CNS = test system: SNB-19 CNS
T-47D breast = test system: T-47D breast
A549 NSCLC = test system: A549 NSCLC
HCT-116 colon = test system: HCT-116 colon
IGROV1 ovarian = test system: IGROV1 ovarian
NCI-H226 lung = test system: NCI-H226 lung
SW-620 colon = test system: SW-620 colon
A498 renal = test system: A498 renal
SF-268 CNS = test system: SF-268 CNS
MOLT-4 leukemia = test system: MOLT-4 leukemia
RXF 393 renal = test system: RXF 393 renal
CCRF-CEM leukemia = test system: CCRF-CEM leukemia
HOP-62 NSCLC = test system: HOP-62 NSCLC
HT29 colon = test system: HT29 colon
NCI-H460 lung = test system: NCI-H460 lung
NCI-H23 lung = test system: NCI-H23 lung
LOX IMVI melanoma = test system: LOX IMVI melanoma
SR leukemia = test system: SR leukemia
CAKI-1 renal = test system: CAKI-1 renal
TK-10 renal = test system: TK-10 renal
SK-MEL-28 melanoma = test system: SK-MEL-28 melanoma
HL-60(TB) leukemia = test system: HL-60(TB) leukemia
DU-145 prostate = test system: DU-145 prostate
SNB-75 CNS = test system: SNB-75 CNS

For `O=c1[nH]c2ccc(Cl)cc2c2oc(-c3ccccc3)nc12`, the TGI (HS 578T breast) was 41.2 µM, the TGI (SK-OV-3 ovarian) was 44.1 µM and the TGI (MDA-N) was > 100 µM. For the same compound, the TGI (RPMI-8226 leukemia) was 64.7 µM, the TGI (HCC-2998 colon) was 79 µM and the TGI (SN12C renal) was 41.8 µM. For the same compound, the TGI (SK-MEL-2 melanoma) was 57.5 µM, the TGI (U251 CNS) was 36.8 µM and the TGI (EKVX NSCLC) was 89.8 µM. It also gave a TGI (SF-295 CNS) of 46.6 µM, a TGI (HOP-92 NSCLC) of 52.2 µM and a TGI (NCI-H522 lung) of 32.3 µM. The TGI (UO-31 renal) was 44.2 µM, the TGI (HCT-15 colon) was > 100 µM and the TGI (MDA-MB-231 breast) was 43.4 µM. The TGI (M14 melanoma) was > 100 µM, the TGI (OVCAR-4 ovarian) was 35.4 µM and the TGI (KM12 colon) was > 100 µM. The TGI (BT-549 breast) was > 100 µM, the TGI (ACHN renal) was 51.3 µM and the TGI (NCI/ADR-RES ovarian) was 86.6 µM. For the same compound, the TGI (K-562 leukemia) was > 100 µM, the TGI (COLO 205 colon) was > 100 µM and the TGI (PC-3 prostate) was > 100 µM. For the same compound, the TGI (OVCAR-3 ovarian) was 46.6 µM, the TGI (UACC-62 melanoma) was > 100 µM and the TGI (MCF7 breast) was > 100 µM. The TGI (SF-539 CNS) was > 100 µM, the TGI (MALME-3M melanoma) was 78 µM and the TGI (SK-MEL-5 melanoma) was 85.8 µM. The TGI (OVCAR-5 ovarian) was > 100 µM, the TGI (786-0 renal) was 30 µM and the TGI (OVCAR-8 ovarian) was 24.8 µM. For the same compound, the TGI (UACC-257 melanoma) was > 100 µM, the TGI (MDA-MB-435) was > 100 µM and the TGI (SNB-19 CNS) was 43.1 µM. The TGI (T-47D breast) was 50.4 µM, the TGI (A549 NSCLC) was 54.3 µM and the TGI (HCT-116 colon) was 32.8 µM. For the same compound, the TGI (IGROV1 ovarian) was > 100 µM, the TGI (NCI-H226 lung) was 42.3 µM and the TGI (SW-620 colon) was > 100 µM. For the same compound, the TGI (A498 renal) was 43.4 µM, the TGI (SF-268 CNS) was > 100 µM and the TGI (MOLT-4 leukemia) was > 100 µM. The TGI (RXF 393 renal) was 71.8 µM, the TGI (CCRF-CEM leukemia) was > 100 µM and the TGI (HOP-62 NSCLC) was 43.6 µM. The TGI (HT29 colon) was > 100 µM, the TGI (NCI-H460 lung) was 36.9 µM and the TGI (NCI-H23 lung) was 74.9 µM. For the same compound, the TGI (LOX IMVI melanoma) was > 100 µM, the TGI (SR leukemia) was 62.3 µM and the TGI (CAKI-1 renal) was 39.7 µM. It also gave a TGI (TK-10 renal) of 80.7 µM.
`Cc1ccc(Cc2n[nH]c(=O)n2/N=C\CC/C=N\n2c(Cc3ccc(C)cc3)n[nH]c2=O)cc1` was tested, and the TGI (HS 578T breast) was 45.5 µM, the TGI (SK-OV-3 ovarian) was > 100 µM and the TGI (MDA-N) was > 100 µM. For the same compound, the TGI (RPMI-8226 leukemia) was > 100 µM, the TGI (HCC-2998 colon) was > 100 µM and the TGI (SN12C renal) was > 100 µM. The TGI (SK-MEL-2 melanoma) was 80.5 µM, the TGI (U251 CNS) was 53.7 µM and the TGI (EKVX NSCLC) was > 100 µM. For the same compound, the TGI (SF-295 CNS) was > 100 µM, the TGI (HOP-92 NSCLC) was 76.1 µM and the TGI (NCI-H522 lung) was > 100 µM. For the same compound, the TGI (UO-31 renal) was > 100 µM, the TGI (HCT-15 colon) was > 100 µM and the TGI (MDA-MB-231 breast) was > 100 µM. The TGI (M14 melanoma) was > 100 µM, the TGI (OVCAR-4 ovarian) was > 100 µM and the TGI (SK-MEL-28 melanoma) was > 100 µM. The TGI (KM12 colon) was > 100 µM, the TGI (BT-549 breast) was > 100 µM and the TGI (ACHN renal) was > 100 µM. For the same compound, the TGI (NCI/ADR-RES ovarian) was 49.9 µM, the TGI (K-562 leukemia) was > 100 µM and the TGI (COLO 205 colon) was > 100 µM. For the same compound, the TGI (PC-3 prostate) was > 100 µM, the TGI (OVCAR-3 ovarian) was > 100 µM and the TGI (UACC-62 melanoma) was > 100 µM. The TGI (MCF7 breast) was > 100 µM, the TGI (SF-539 CNS) was 24.9 µM and the TGI (MALME-3M melanoma) was > 100 µM. For the same compound, the TGI (HL-60(TB) leukemia) was > 100 µM, the TGI (SK-MEL-5 melanoma) was > 100 µM and the TGI (OVCAR-5 ovarian) was > 100 µM. The TGI (786-0 renal) was 41 µM, the TGI (OVCAR-8 ovarian) was 39.9 µM and the TGI (UACC-257 melanoma) was > 100 µM. For the same compound, the TGI (MDA-MB-435) was > 100 µM, the TGI (SNB-19 CNS) was > 100 µM and the TGI (T-47D breast) was > 100 µM. The TGI (A549 NSCLC) was > 100 µM, the TGI (HCT-116 colon) was > 100 µM and the TGI (IGROV1 ovarian) was > 100 µM. The TGI (NCI-H226 lung) was 65.3 µM, the TGI (DU-145 prostate) was > 100 µM and the TGI (SW-620 colon) was > 100 µM. The TGI (A498 renal) was > 100 µM, the TGI (SF-268 CNS) was 50.9 µM and the TGI (MOLT-4 leukemia) was > 100 µM. For the same compound, the TGI (RXF 393 renal) was 65.3 µM, the TGI (CCRF-CEM leukemia) was > 100 µM and the TGI (HOP-62 NSCLC) was 24.6 µM. For the same compound, the TGI (HT29 colon) was > 100 µM, the TGI (NCI-H23 lung) was 84.6 µM and the TGI (LOX IMVI melanoma) was > 100 µM. For the same compound, the TGI (CAKI-1 renal) was > 100 µM, the TGI (SNB-75 CNS) was 34.7 µM and the TGI (TK-10 renal) was > 100 µM.
